# Source: ChEMBL document CHEMBL1140189, “Lignans from the roots of Saururus chinensis” (J Nat Prod, 2008)
# System: HepG2
# Experiment: Cytotoxicity against human HEPG2 cells by MTT assay
# Type: functional, cell-based
row,SMILES,IC50 [µM]
1,"CC(Cc1cc2c(cc1O)OCO2)[C@@H](C)[C@H](O)c1ccc2c(c1)OCO2 (single isomer, unassigned) [SAUCERNEOL H]",61
2,CC[C@@]1(O)C(=O)OCc2c1cc1n(c2=O)Cc2cc3ccccc3nc2-1 [CAMPTOTHECIN],0.3
3,COc1ccc([C@H](O)[C@@H](C)Oc2ccc([C@H]3O[C@H](c4ccc5c(c4)OCO5)[C@H](C)[C@H]3C)cc2OC)cc1OC [SAUCERNEOL D],16
4,COc1cc([C@H]2O[C@H](c3ccc4c(c3)OCO4)[C@H](C)[C@H]2C)ccc1O[C@H](C)[C@@H](O)c1ccc2c(c1)OCO2 [SAUCERNEOL F],11
5,CC(Cc1cc2c(cc1O)OCO2)C(C)C(=O)c1ccc2c(c1)OCO2 (stereo not drawn) [SAUCERNEOL G],62
6,C[C@@H]([C@H](C)[C@H](O)c1ccc2c(c1)OCO2)[C@H](O)c1ccc2c(c1)OCO2 [SAUCERNEOL I],> 100

# System: MCF7
# Experiment: Cytotoxicity against human MCF7 cells by MTT assay
# Type: functional, cell-based
row,SMILES,IC50 [µM]
1,"CC(Cc1cc2c(cc1O)OCO2)[C@@H](C)[C@H](O)c1ccc2c(c1)OCO2 (single isomer, unassigned) [SAUCERNEOL H]",72
2,CC[C@@]1(O)C(=O)OCc2c1cc1n(c2=O)Cc2cc3ccccc3nc2-1 [CAMPTOTHECIN],10
3,COc1ccc([C@H](O)[C@@H](C)Oc2ccc([C@H]3O[C@H](c4ccc5c(c4)OCO5)[C@H](C)[C@H]3C)cc2OC)cc1OC [SAUCERNEOL D],> 100
4,COc1cc([C@H]2O[C@H](c3ccc4c(c3)OCO4)[C@H](C)[C@H]2C)ccc1O[C@H](C)[C@@H](O)c1ccc2c(c1)OCO2 [SAUCERNEOL F],> 100
5,CC(Cc1cc2c(cc1O)OCO2)C(C)C(=O)c1ccc2c(c1)OCO2 (stereo not drawn) [SAUCERNEOL G],64
6,C[C@@H]([C@H](C)[C@H](O)c1ccc2c(c1)OCO2)[C@H](O)c1ccc2c(c1)OCO2 [SAUCERNEOL I],> 100

# System: HT-29
# Experiment: Cytotoxicity against human HT29 cells by MTT assay
# Type: functional, cell-based
row,SMILES,IC50 [µM]
1,"CC(Cc1cc2c(cc1O)OCO2)[C@@H](C)[C@H](O)c1ccc2c(c1)OCO2 (single isomer, unassigned) [SAUCERNEOL H]",53
2,CC[C@@]1(O)C(=O)OCc2c1cc1n(c2=O)Cc2cc3ccccc3nc2-1 [CAMPTOTHECIN],2
3,COc1ccc([C@H](O)[C@@H](C)Oc2ccc([C@H]3O[C@H](c4ccc5c(c4)OCO5)[C@H](C)[C@H]3C)cc2OC)cc1OC [SAUCERNEOL D],13
4,COc1cc([C@H]2O[C@H](c3ccc4c(c3)OCO4)[C@H](C)[C@H]2C)ccc1O[C@H](C)[C@@H](O)c1ccc2c(c1)OCO2 [SAUCERNEOL F],10
5,CC(Cc1cc2c(cc1O)OCO2)C(C)C(=O)c1ccc2c(c1)OCO2 (stereo not drawn) [SAUCERNEOL G],55
6,C[C@@H]([C@H](C)[C@H](O)c1ccc2c(c1)OCO2)[C@H](O)c1ccc2c(c1)OCO2 [SAUCERNEOL I],21
